# Measured values published in patent US5902726A, “Activators of the nuclear orphan receptor peroxisome proliferator-activated receptor gamma” (priority 1998, dated 1999).
# Like-named read-outs stand apart in the source and are kept apart here.
# How the values were obtained:
# [1] = molecular target: T1, GAL4-PPARγ chimera (ligand-binding domain of the murine PPARγ) (Mus musculus, UniProt P37238); experiment: Transient cotransfection assay: SPAP reporter; type: cell-based; settings: for fold induction at 10 µM: read-out: Fold Activation
# T1 construct: transient in CV-1 cells with UAS-tk-SPAP reporter
# T1 sequence (P37238 204-505): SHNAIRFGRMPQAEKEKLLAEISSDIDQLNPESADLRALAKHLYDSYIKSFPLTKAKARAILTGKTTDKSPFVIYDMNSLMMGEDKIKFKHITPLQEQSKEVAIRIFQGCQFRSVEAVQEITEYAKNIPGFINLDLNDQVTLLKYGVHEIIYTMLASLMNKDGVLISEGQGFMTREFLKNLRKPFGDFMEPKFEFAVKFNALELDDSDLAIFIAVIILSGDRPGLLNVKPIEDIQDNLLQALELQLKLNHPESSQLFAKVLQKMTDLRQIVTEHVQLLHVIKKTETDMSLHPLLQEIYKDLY
# Text: A transient cotransfection assay was used to screen for activators of PPARγ. As mammalian cell lines contain endogenous nuclear receptors that can complicate interpretation of the results, we used an established chimera system in which the ligand-binding domain of the murine PPARγ was fused to the DNA binding domain of the yeast transcription factor GAL4. The GAL4-PPARγ chimera was cotransfected into CV-1 cells with a reporter construct containing five copies of the GAL4 binding site upstream of the thymidine kinase promoter driving secreted placental alkaline phosphatase (SPAP) as reporter.
# GAL4-PPAR chimeras and UAS-tk-CAT/SPAP reporters.
# CV-1 cells were plated in DME medium supplemented with 10% delipidated fetal calf serum at a density of 2.4×10^4 cells per well in a 96-well plate (Costar) 16-24 h before transfection. In general, 8.0 ng of reporter plasmid, 25.0 ng of β-galactosidase expression vector (pCH110, Pharamacia), and 2.0 ng of GAL4-PPARγ expression vector were mixed with carrier DNA (pBluescript, Stratagene) to a total of 80 ng of DNA per well in a volume of 10 μl optiME medium (GIBCO BRL). To this, a second mix, containing 9.3 μl optiME medium and 0.7 μl of LIPOFECTAMINE™ (GIBCO BRL), was added. After 30 min. an additional 80 μl of optiME medium were added and the combined mix was then applied to the cells.
# [2] = test system: glutathione-S-transferase; experiment: Binding control in extracts from bacteria expressing glutathione-S-transferase; settings: extracts from bacteria expressing glutathione-S-transferase alone
# Text: (§1) To test for direct interactions between thiazolidinediones and PPARγ,the ligand binding domain of PPARγ was expressed in E. Coli as a fusion protein with glutathionine-S-transferase (GST-PPARγ LBD).
# GST-PPARγ LBD = molecular target: T2, GST-PPARγ LBD (Mus musculus, UniProt P37238); experiment: Saturation binding of radiolabeled ligand to GST-PPARγ LBD; design: species or system murine; settings: for non-specific binding: 500-fold excess of nontritiated compound
# T2 construct: cDNA encoding amino acids 174 to 475 of PPARg1; made in house; host or cells: E. coli BL21 (DE3)plysS, crude bacterial extract
# T2 sequence (P37238 174-475 isoform P37238-2): T1 sequence (P37238 204-505)
# Procedure: as §1
# Bound was separated from free radioactivity by elution through 1 ml Sephadex G-25 desalting columns (Boehringer Mannheim). Bound radioactivity eluted in the column void volume and was quantitated by liquid scintillation counting.
# pre-adipocyte cell lines = settings: cited from earlier work
# [3] = test system: enhancer/promoter of the lipid-binding protein aP2; settings: Harris and Kletzien, 1994; cited from earlier work
# [4] = CV-1 cells, SPAP reporter, test compound at 10^-5 M, 24 h
"fold induction at 10 µM [1, 4]",Structure (SMILES),further results
46.1,"CC1(COc2ccc(CC3SC(=O)NC3=O)cc2)CCCCC1 (stereo not drawn) [5-[4-(1-methyl-cyclohexylmethoxy)-benzyl)-thiazolidine-2,4-dione]",–
23.8,CCCCCC(O)C=CC1C(=O)CC(O)C1CC=CCCCC(=O)O (stereo not drawn) [7-[5-Hydroxy-2-(3-hydroxy-oct-1-enyl)-3-oxo-cyclopentyl]-hept-5-enoic acid],–
27,CCCCCC(C)c1ccc(C2=CCCC2CCCCCCC(=O)O)cc1 (stereo not drawn) [7-{2-[4-(1-Methyl-hexyl)-phenyl]-cyclopent-2-enyl}-heptanoic acid],–
24.6,O=C(O)CCCCCCC1=C(c2ccc(C(O)C3CCCC3)cc2)CCC1=O (stereo not drawn) [7-{2-[4-(Cyclopentyl-hydroxy-methyl)-phenyl]-5-oxo-cyclopent-1-enyl}-heptanoic acid],–
11.3,"CC(C)Oc1cc(CCCCC(=O)O)c(C=CC(=O)CCCCCC(=O)O)c(OC(C)C)c1 [9-[2-(4-Carboxy-butyl)-4,6-diisopropoxy-phenyl]-7-oxo-non-8-enoic acid]",–
21.7,CCCc1c(-c2ccccc2)[nH]c2ccc(CC(=O)O)cc12 [(2-Phenyl-3-propyl-1H-indol-5-yl)-acetic acid],–
21.2,O=C(O)Cc1ccc2[nH]c(-c3ccccc3)c(CCc3ccccc3)c2c1 [(3-phenethyl-2-phenyl-1H-indol-5-yl)-acetic acid],–
17.8,CN(C)c1ccc(Cc2ccc(N(C)C)cc2CC(=O)O)cc1 [[5-Dimethylamino-2-(4-dimethylamino-benzyl)-phenyl]-acetic acid],–
25.7,"Cc1cccc(Nc2cc(Cl)nc(SCC(=O)O)n2)c1C [{4-Chloro-6-(2,3-dimethyl-phenylamino)-pyrimidin-2-ylsulfanyl}-acetic acid]",–

# Further lines, the molecule ahead of its results:
Structure (SMILES),"fold induction at 10 µM [1, 4]",further results
"CC1(C)CCC(C)(C)c2cc3ncc(-c4ccccc4C(=O)O)cc3cc21 [2-(6,6,9,9-tetramethyl-6,7,8,9-tterahydro-benzo[g]quinolin-3-yl)-benzoic acid]",25.9,–
CCCCc1nc(Cl)c(C(=O)NCC(=O)OCC)n1Cc1ccc2oc(-c3ccccc3C(=O)O)c(Br)c2c1 [2-[3-Bromo-5-(2-butyl-4-chloro-5-ethoxycarbonylmethylcarbamoyl-imidazol-1-ylmethyl)-benzofuran-2-yl]-benzoic acid],23.9,–
"O=C1NC(=O)C(Cc2ccc3c(c2)CCC(Cc2ccccc2)O3)S1 (stereo not drawn) [5-(2-Benzyl-chroman-6-ylmethyl)-thiazolidine-2,4-dione]",18.2,–
CCCCCC(O)C=CC1C(O)CC2CC(=CCCCC(=O)O)CC21 (stereo not drawn) [5-[5-Hydroxy-4-(3-hydroxy-oct-1-enyl)-hexahydro-pentalen-2-ylidene]-pentanoic acid],–,"fold induction at 10 µM ([1]; CV-1, 24 h): 19.6"
"CN(CCOc1ccc(CC2SC(=O)NC2=O)cc1)c1ccccn1 (stereo not drawn) [5-{4-[2-(Methyl-pyridine-2-yl-amino)-ethoxy]-benzyl}-thiazolidine-2,4-dione]",–,"Binding [2]: No binding was detected; Specific binding (GST-PPARγ LBD; at 100 nM tritiated ligand): 13,500 dpm; non-specific binding (GST-PPARγ LBD; at 100 nM tritiated ligand): 1,700 dpm; Specific binding (GST-PPARγ LBD; at 200 nM tritiated ligand): 14,500 dpm; non-specific binding (GST-PPARγ LBD; at 200 nM tritiated ligand): 1,900 dpm"
CCCCCC(=O)C=CC1C(O)CC(=O)C1CCCCCCC(=O)O (stereo not drawn) [7-[43-Hydroxy-5-oxo-2-(3-oxo-oct-1-enyl)-cyclopentyl]-heptanoic acid],–,"Fold Activation ([1]; CV-1 cells, SPAP reporter, test compound at 10^-5 M, 24 h, 10 µM): 25.6"
CCc1ccc(CCOc2ccc(CC3SC(=O)NC3=O)cc2)nc1 (stereo not drawn) [pioglitazone],–,Expression of adipocyte-specific genes aP2 and adipsin and glucose transporter proteins GLUT-1 and GLUT-4 (pre-adipocyte cell lines): increased expression; Expression of chimeric aP2 enhancer/promoter CAT reporter gene [3]: stimulate expression
